Measurements reported in ChEMBL document CHEMBL1201862, “PubChem BioAssay data set” (2004).
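Following 48 hours of exposure in 96-well plates, responses at five concentrations were used to interpolate endpoints linearly. The concentration for 50% growth inhibition is given as GI50.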 Calls of active or inactive are those of the source. Rule as the data show it: active = GI50 up to about 1.1 µM and inactive = higher. Square brackets hold non-standard residues; d marks the D form. Peptide text beside a SMILES is read from it. * marks the point of attachment. NMeV = CN[C@H](C(=O)O)C(C)C; X28 = COc1ccc(CN*)c(OC)c1; Octanoyl = CCCCCCCC(=O)*; dNMeA = CN[C@H](C)C(=O)O

What was measured:
Assay in all cases: inhibition of tumour cell growth, NCI panel, 48 h
[1] = test system: OVCAR-3
[2] = test system: A549
[3] = test system: U-251
[4] = test system: SW-620
[5] = test system: DLD-1
[6] = test system: HCT-116
[7] = test system: HCT-15
[8] = test system: OVCAR-4
[9] = test system: EKVX
[10] = test system: KM12
[11] = test system: IGROV-1
[12] = test system: MOLT-4
[13] = test system: SF-268
[14] = test system: RXF 393
[15] = test system: MCF7
[16] = test system: MDA-MB-231
[17] = test system: Hs-578T
[18] = test system: PC-3
[19] = test system: MDA-MB-435
[20] = test system: SR

Row | Structure (SMILES) | GI50 [1] | GI50 [2] | GI50 [3] | GI50 [4] | GI50 [5] | GI50 [6] | GI50 [7] [µM] | GI50 [8] | GI50 [9] | GI50 [10] | GI50 [11] | GI50 [12] | GI50 [13] | GI50 [14] | GI50 [15] | GI50 [16] | GI50 [17] | GI50 [18] | GI50 [19] | GI50 [20]
1 | Nc1ncnc2c1ncn2C1OC(CSC(F)F)C(O)C1O (stereo unspecified) | > 100 µM (inactive) | > 100 µM (inactive) | > 100 µM (inactive) | > 100 µM (inactive) | > 100 µM (inactive) | > 100 µM (inactive) | > 100 | > 100 µM (inactive) | > 100 µM (inactive) | > 100 µM (inactive) | > 100 µM (inactive) | > 100 µM (inactive) | > 100 µM (inactive) |  |  |  |  |  |  | 
2 | COc1ccc(/C(Cl)=C(\C=O)c2ccc(Br)cc2)cc1OC | > 100 µM (inactive) | 62.5 µM (inactive) | 32.8 µM (inactive) | > 100 µM (inactive) | > 100 µM (inactive) |  | 25.1 | > 100 µM (inactive) | > 48.4 µM (inactive) | > 100 µM (inactive) | > 100 µM (inactive) | 4.27 µM (inactive) | 23.2 µM (inactive) | 20.7 µM (inactive) |  |  |  |  |  | 
3 | CCCCCCCC(=O)N[C@H](C(=O)N[C@H](C(=O)N(C)[C@H](C(=O)N1CCC[C@H]1C(=O)N(C)[C@H](C)C(=O)NCc1ccc(OC)cc1OC)C(C)C)C(C)C)C(C)C (Octanoyl-VV[NMeV]P[dNMeA]-X28) | 4.2 µM (inactive) | 6.55 µM (inactive) | 4.79 µM (inactive) | 7.71 µM (inactive) |  | 5.93 µM (inactive) | 21.5 | 6.14 µM (inactive) | 6.89 µM (inactive) | 4.62 µM (inactive) | 3.75 µM (inactive) | 14.2 µM (inactive) | 15.2 µM (inactive) | 8.57 µM (inactive) | 7.53 µM (inactive) | 10.5 µM (inactive) | 9.16 µM (inactive) | 7.01 µM (inactive) | 5.22 µM (inactive) | 17.6 µM (inactive)
4 | O=S1(=O)CS(=O)(=O)OCCCCCO1 |  | > 100 µM (inactive) | > 100 µM (inactive) | > 100 µM (inactive) | > 100 µM (inactive) | > 100 µM (inactive) | > 100 | > 100 µM (inactive) | > 100 µM (inactive) | > 100 µM (inactive) | > 100 µM (inactive) |  | > 100 µM (inactive) | > 100 µM (inactive) |  |  |  |  |  | 
5 | C=CCN1C(=O)CS/C1=N\NC(=O)CSc1nc2ccccc2c(=O)n1CC | > 100 µM (inactive) | > 100 µM (inactive) | > 100 µM (inactive) | > 100 µM (inactive) |  | > 100 µM (inactive) | > 100 | > 100 µM (inactive) | > 100 µM (inactive) | > 100 µM (inactive) | > 100 µM (inactive) | > 100 µM (inactive) | > 100 µM (inactive) | > 100 µM (inactive) | > 100 µM (inactive) | > 100 µM (inactive) | > 100 µM (inactive) | > 100 µM (inactive) | > 100 µM (inactive) | > 100 µM (inactive)
6 | O=C1OC(c2ccccc2)=N/C1=C\c1ccc(Br)cc1 | > 100 µM (inactive) | > 100 µM (inactive) | > 100 µM (inactive) | > 100 µM (inactive) |  | > 100 µM (inactive) | > 100 | > 100 µM (inactive) | > 100 µM (inactive) | > 100 µM (inactive) | > 100 µM (inactive) | 94 µM (inactive) | > 100 µM (inactive) | > 100 µM (inactive) | > 100 µM (inactive) | > 100 µM (inactive) | > 100 µM (inactive) | > 100 µM (inactive) | > 100 µM (inactive) | 66.2 µM (inactive)
7 | COc1ccc(/C=C/c2cc(OC)cc(=O)o2)cc1 [YANGONIN] | > 100 µM (inactive) | > 100 µM (inactive) | 27.1 µM (inactive) | > 100 µM (inactive) |  | 77.6 µM (inactive) | > 100 | > 100 µM (inactive) | > 100 µM (inactive) | 57.4 µM (inactive) | > 100 µM (inactive) | > 100 µM (inactive) | 60.1 µM (inactive) | 44.2 µM (inactive) | > 100 µM (inactive) | > 100 µM (inactive) | 35.5 µM (inactive) | > 100 µM (inactive) | > 100 µM (inactive) | > 100 µM (inactive)
8 | c1ccc(CSSSCc2ccccc2)cc1 [DIBENZYL TRISULFIDE] | 0.423 µM (active) | 5.09 µM (inactive) | 2.01 µM (inactive) | 0.115 µM (active) |  | 0.272 µM (active) | 0.581 | 2.3 µM (inactive) | 6.52 µM (inactive) | 2.67 µM (inactive) | 2.8 µM (inactive) | 0.139 µM (active) | 3.57 µM (inactive) | 1.72 µM (inactive) | 0.385 µM (active) | 2.48 µM (inactive) | 8.32 µM (inactive) | 1.32 µM (inactive) | 0.568 µM (active) | 4.06 µM (inactive)
9 | Nc1ccc(C2=Nc3ccccc3SC(c3ccccc3O)C2)cc1 (stereo unspecified) | 23.3 µM (inactive) | 51.2 µM (inactive) | 45.5 µM (inactive) | 33.7 µM (inactive) | 34.1 µM (inactive) |  | 27.3 | 51.6 µM (inactive) | 99.8 µM (inactive) | 25.5 µM (inactive) | 46.6 µM (inactive) | 19.8 µM (inactive) | 33.7 µM (inactive) | 24.9 µM (inactive) |  |  |  |  |  | 
10 | COC(=O)C1=C(C)NC2=C(C(=O)c3ccccc32)C1c1c[nH]nc1-c1ccccc1 (stereo unspecified) | 48.6 µM (inactive) | 47.6 µM (inactive) | 72.1 µM (inactive) | 59.3 µM (inactive) |  | > 100 µM (inactive) | 62.5 | 54.7 µM (inactive) | 16.1 µM (inactive) | 86.7 µM (inactive) | 20.2 µM (inactive) | 24.8 µM (inactive) | 26.2 µM (inactive) | 43.4 µM (inactive) | 44.7 µM (inactive) | 30.1 µM (inactive) | 21.5 µM (inactive) | 52.1 µM (inactive) | 57.4 µM (inactive) | 24.4 µM (inactive)
11 | O=c1c2ncn(C3CC(O)C(CO)O3)c2nnn1Cc1ccccc1[N+](=O)[O-] (stereo unspecified) | 75 µM (inactive) | > 100 µM (inactive) | > 100 µM (inactive) | > 100 µM (inactive) |  | > 100 µM (inactive) | > 100 | > 100 µM (inactive) | > 100 µM (inactive) | > 100 µM (inactive) | > 100 µM (inactive) | 29.4 µM (inactive) | > 100 µM (inactive) | 17.8 µM (inactive) | > 100 µM (inactive) | > 100 µM (inactive) | > 100 µM (inactive) | > 100 µM (inactive) | > 100 µM (inactive) | 3.13 µM (inactive)
12 | Cc1c2cc[n+](C)cc2c(C)c2c1[nH]c1ccc(Oc3ccccc3)cc12 | 1.6 µM (inactive) | 0.324 µM (active) | 0.308 µM (active) | 0.843 µM (active) | 0.906 µM (active) | 1.54 µM (inactive) | 3.05 | 1.4 µM (inactive) | 3.61 µM (inactive) | 0.59 µM (active) | 2.23 µM (inactive) | 2.21 µM (inactive) | 0.738 µM (active) |  |  |  |  |  |  | 
13 | Cc1c(C(=O)c2ccccc2C(=O)O)c2ccccc2n1C | > 100 µM (inactive) | > 100 µM (inactive) | > 100 µM (inactive) | > 100 µM (inactive) | > 100 µM (inactive) | > 100 µM (inactive) | > 100 | > 100 µM (inactive) | > 100 µM (inactive) | > 100 µM (inactive) | > 100 µM (inactive) | > 100 µM (inactive) |  | > 100 µM (inactive) |  |  |  |  |  | 
14 | CC(=O)OC1[C@@H](OC(C)=O)CN(OCc2ccccc2)C[C@H]1OC(C)=O (stereo partly specified) | > 100 µM (inactive) | > 100 µM (inactive) | > 100 µM (inactive) | > 100 µM (inactive) |  | > 100 µM (inactive) | > 100 | > 100 µM (inactive) | > 100 µM (inactive) | > 100 µM (inactive) | > 100 µM (inactive) | > 100 µM (inactive) | > 100 µM (inactive) | > 100 µM (inactive) | > 100 µM (inactive) | > 100 µM (inactive) | > 100 µM (inactive) | > 100 µM (inactive) | > 100 µM (inactive) | > 100 µM (inactive)
15 | Cc1cccc2c1CC(Cc1ccccc1C(=O)O)C2=O (stereo unspecified) | > 100 µM (inactive) | > 100 µM (inactive) | > 100 µM (inactive) | > 100 µM (inactive) |  | > 100 µM (inactive) | > 100 | > 100 µM (inactive) | > 100 µM (inactive) | > 100 µM (inactive) | > 100 µM (inactive) | > 100 µM (inactive) | > 100 µM (inactive) | > 100 µM (inactive) | > 100 µM (inactive) | > 100 µM (inactive) | > 100 µM (inactive) | > 100 µM (inactive) | > 100 µM (inactive) | > 100 µM (inactive)
16 | Cn1c2ccccc2c(=NNc2ccc(C(=O)O)cc2)c2ccccc21 | 16.5 µM (inactive) | 14.4 µM (inactive) | 11.1 µM (inactive) | 16.1 µM (inactive) |  | 7.5 µM (inactive) | 18.8 | 12.9 µM (inactive) | 9.25 µM (inactive) | 15.7 µM (inactive) | 20.1 µM (inactive) | 11.3 µM (inactive) | 15.8 µM (inactive) | 15.4 µM (inactive) | 10.4 µM (inactive) | 19.8 µM (inactive) | 18.7 µM (inactive) | 14.1 µM (inactive) | 19 µM (inactive) | 13.8 µM (inactive)
17 | O=C1CCC(c2ccccc2)(c2ccccc2)CC1 | > 100 µM (inactive) | 49.4 µM (inactive) | > 100 µM (inactive) | 82.2 µM (inactive) |  | 41.3 µM (inactive) | 47.4 | > 100 µM (inactive) | 92.3 µM (inactive) | > 100 µM (inactive) | > 100 µM (inactive) | 30.6 µM (inactive) | > 100 µM (inactive) | > 100 µM (inactive) | 46 µM (inactive) | > 100 µM (inactive) | 81.1 µM (inactive) | 73.6 µM (inactive) | > 100 µM (inactive) | 37.8 µM (inactive)
